Experimental data reported in ChEMBL document CHEMBL3882729, “Receptor-type kinase modulators and methods of use” (2009).

Experiments:
[1] = biological target: Vascular endothelial growth factor receptor 2 (Homo sapiens, UniProt P35968); assay: Inhibition of recombinant human N-terminal GST-fused KDR (D807 to V1356 residues) expressed in baculovirus infected […] insect Sf9 cells using poly-EY as substrate after 240 mins by luciferase coupled chemiluminescence assay
Ephrin type-B receptor 4 = biological target: T1, Ephrin type-B receptor 4 (Homo sapiens, UniProt P54760); assay: Inhibition of recombinant human N-terminal His6-tagged EphB4 kinase domain (E605 to E890 residues) expressed in baculovirus using poly-AEKY as substrate after 150 mins in presence of gamma33P-ATP by liquid scintillation spectrometry
T1 sequence (P54760 whole entry): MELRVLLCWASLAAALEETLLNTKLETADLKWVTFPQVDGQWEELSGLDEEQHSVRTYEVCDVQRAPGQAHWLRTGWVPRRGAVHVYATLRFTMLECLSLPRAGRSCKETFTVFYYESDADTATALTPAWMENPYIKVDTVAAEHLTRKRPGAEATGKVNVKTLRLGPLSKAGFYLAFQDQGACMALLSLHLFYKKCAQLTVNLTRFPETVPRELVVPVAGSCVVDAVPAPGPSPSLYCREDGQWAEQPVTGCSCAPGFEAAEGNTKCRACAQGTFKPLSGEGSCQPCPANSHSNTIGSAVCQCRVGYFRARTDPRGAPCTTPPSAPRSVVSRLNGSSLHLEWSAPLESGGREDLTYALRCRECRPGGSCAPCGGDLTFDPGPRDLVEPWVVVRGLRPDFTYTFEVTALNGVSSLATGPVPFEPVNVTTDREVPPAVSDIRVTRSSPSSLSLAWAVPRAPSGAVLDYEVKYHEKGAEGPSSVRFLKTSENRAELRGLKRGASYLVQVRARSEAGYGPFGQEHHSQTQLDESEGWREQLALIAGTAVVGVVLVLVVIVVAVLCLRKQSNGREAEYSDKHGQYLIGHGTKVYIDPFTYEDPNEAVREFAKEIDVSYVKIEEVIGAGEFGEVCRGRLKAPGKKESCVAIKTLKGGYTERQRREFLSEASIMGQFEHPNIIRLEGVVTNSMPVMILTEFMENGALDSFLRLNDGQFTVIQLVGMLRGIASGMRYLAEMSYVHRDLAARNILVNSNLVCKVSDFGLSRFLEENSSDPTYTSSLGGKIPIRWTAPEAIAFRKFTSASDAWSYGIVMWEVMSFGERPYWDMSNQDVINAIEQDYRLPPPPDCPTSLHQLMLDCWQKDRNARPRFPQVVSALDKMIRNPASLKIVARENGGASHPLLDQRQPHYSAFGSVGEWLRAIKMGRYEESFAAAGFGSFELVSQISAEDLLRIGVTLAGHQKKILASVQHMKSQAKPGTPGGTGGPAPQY

[2] = biological target: Receptor tyrosine-protein kinase erbB-2 (Homo sapiens, UniProt P04626); assay: Inhibition of recombinant human N-terminal GST His6-tagged thrombin cleavage site-fused ErbB2 kinase domain (Q679 to V1255 residues) expressed in baculovirus infected insect Sf9 cells using biotinylated poly-EY as substrate after 60 mins by alphascreen assay
Ephrin type-A receptor 2 = Ephrin type-A receptor 2 (Homo sapiens, UniProt P29317); assay: Inhibition of recombinant human N-terminal His6-tagged EphA2 (N598 to R890 residues) expressed in baculovirus using poly-EY as substrate after 180 mins by luciferase coupled chemiluminescence assay
Ephrin type-A receptor 2, sequence (P29317 whole entry, the tested form may be a part): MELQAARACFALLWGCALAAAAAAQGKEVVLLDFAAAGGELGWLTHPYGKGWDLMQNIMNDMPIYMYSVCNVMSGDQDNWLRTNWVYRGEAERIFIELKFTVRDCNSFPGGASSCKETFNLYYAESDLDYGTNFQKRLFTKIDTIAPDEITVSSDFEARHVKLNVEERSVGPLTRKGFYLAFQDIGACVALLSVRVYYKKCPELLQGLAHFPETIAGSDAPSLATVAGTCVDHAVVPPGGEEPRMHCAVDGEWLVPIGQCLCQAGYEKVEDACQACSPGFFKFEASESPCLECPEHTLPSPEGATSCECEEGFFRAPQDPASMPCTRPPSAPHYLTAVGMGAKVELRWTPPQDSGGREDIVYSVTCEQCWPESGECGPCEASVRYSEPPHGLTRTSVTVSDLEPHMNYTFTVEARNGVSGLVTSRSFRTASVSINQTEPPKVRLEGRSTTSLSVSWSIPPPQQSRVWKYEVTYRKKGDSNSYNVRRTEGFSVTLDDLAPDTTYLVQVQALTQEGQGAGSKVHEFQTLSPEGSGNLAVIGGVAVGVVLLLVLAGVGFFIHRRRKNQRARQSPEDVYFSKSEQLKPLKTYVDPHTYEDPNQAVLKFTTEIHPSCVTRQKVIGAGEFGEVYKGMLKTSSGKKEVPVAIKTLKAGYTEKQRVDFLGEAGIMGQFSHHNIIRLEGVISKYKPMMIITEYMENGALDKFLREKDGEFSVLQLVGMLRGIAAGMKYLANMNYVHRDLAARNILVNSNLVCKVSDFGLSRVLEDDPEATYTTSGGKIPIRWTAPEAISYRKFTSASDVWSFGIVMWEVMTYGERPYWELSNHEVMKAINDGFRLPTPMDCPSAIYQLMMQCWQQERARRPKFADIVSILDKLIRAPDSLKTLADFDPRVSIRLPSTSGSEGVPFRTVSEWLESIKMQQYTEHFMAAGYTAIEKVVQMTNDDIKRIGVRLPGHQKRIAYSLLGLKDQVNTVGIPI

Vascular endothelial growth factor receptor 2, sequence (P35968 whole entry, the tested form may be a part): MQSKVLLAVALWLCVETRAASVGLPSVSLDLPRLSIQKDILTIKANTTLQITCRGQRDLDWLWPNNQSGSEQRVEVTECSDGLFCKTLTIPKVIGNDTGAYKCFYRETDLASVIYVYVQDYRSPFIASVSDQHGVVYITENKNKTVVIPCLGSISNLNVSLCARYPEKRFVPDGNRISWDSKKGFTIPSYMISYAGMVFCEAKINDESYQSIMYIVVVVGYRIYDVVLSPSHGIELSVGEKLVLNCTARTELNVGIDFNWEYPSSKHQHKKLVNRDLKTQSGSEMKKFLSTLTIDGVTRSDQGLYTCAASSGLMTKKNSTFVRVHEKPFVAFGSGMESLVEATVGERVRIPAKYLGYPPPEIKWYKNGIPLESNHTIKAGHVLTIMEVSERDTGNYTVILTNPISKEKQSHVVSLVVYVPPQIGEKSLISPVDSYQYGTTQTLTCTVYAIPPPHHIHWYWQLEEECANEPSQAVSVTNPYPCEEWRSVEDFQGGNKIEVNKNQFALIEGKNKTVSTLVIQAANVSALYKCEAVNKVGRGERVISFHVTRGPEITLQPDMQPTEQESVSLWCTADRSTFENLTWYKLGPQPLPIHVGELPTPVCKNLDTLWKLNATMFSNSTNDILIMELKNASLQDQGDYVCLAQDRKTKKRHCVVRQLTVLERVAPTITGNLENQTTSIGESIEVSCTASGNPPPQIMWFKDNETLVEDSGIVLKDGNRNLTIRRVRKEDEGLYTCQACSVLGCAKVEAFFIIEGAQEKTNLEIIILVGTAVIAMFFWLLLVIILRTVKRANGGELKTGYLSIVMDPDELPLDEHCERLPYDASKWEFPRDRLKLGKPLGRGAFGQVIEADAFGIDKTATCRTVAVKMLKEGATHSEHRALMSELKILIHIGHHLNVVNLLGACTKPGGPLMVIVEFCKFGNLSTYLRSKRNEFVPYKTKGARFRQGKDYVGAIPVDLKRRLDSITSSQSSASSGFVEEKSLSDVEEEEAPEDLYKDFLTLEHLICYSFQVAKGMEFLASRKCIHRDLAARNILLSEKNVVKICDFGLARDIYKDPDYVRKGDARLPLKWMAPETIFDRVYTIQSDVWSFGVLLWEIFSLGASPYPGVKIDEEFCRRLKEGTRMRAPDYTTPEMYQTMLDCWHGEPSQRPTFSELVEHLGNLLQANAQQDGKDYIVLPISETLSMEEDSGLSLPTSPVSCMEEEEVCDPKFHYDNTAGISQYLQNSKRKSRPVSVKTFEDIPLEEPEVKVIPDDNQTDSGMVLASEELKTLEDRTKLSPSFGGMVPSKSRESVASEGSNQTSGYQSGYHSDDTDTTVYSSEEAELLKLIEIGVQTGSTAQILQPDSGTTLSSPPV
Receptor tyrosine-protein kinase erbB-2, sequence (P04626 whole entry, the tested form may be a part): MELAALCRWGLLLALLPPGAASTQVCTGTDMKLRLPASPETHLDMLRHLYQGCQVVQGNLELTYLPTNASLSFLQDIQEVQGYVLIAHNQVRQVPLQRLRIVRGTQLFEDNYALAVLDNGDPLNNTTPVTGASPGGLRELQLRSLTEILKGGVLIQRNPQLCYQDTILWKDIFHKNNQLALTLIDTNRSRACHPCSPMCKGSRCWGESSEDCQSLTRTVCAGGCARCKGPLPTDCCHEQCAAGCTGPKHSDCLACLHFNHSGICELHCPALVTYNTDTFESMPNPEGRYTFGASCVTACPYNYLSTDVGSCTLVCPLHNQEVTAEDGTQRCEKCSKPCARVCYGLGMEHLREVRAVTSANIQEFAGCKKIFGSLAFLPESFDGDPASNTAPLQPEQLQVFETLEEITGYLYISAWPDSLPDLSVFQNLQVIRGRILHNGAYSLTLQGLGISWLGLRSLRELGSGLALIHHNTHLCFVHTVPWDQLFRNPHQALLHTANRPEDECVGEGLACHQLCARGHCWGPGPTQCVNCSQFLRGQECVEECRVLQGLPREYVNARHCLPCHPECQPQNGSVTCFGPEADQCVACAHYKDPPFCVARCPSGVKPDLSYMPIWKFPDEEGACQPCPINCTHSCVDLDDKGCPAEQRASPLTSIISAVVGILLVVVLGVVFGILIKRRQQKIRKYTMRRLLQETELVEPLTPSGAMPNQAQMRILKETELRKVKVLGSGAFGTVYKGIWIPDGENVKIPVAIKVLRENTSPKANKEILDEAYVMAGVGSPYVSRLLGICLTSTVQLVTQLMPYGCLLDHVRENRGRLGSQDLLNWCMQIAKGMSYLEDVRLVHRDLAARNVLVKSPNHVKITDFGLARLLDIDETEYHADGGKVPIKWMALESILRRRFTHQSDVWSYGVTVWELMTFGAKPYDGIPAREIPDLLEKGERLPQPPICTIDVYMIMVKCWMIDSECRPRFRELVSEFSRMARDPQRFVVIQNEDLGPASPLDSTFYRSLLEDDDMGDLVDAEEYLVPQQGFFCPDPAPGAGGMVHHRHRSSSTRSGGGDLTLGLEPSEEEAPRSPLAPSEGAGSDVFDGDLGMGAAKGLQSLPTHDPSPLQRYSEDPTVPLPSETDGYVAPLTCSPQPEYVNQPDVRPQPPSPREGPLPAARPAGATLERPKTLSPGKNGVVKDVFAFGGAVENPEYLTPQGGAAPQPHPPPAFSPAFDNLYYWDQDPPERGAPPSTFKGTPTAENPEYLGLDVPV

SMILES | IC50 [1] [nM] | IC50 (Ephrin type-B receptor 4) [nM] | IC50 [2] [nM] | IC50 (Ephrin type-A receptor 2) [nM]
COc1cc2c(Nc3ccc(Br)c(Cl)c3)ncnc2cc1O[C@H]1CO[C@H]2[C@@H]1OC[C@@H]2O | 1000 to 20000 | 50 to 1000 | 50 to 1000 | 1000 to 20000
COc1cc2c(Nc3cc(Cl)c(Cl)cc3F)ncnc2cc1OCC1CN(C)C(C)(C)CO1 (configuration not stated) | < 50 | < 50 | < 50 | < 50
COc1cc2c(Nc3ccc(Cl)c(Cl)c3)ncnc2cc1OCC1CN(S(C)(=O)=O)CCCO1 (configuration not stated) | 50 to 1000 | < 50 | < 50 | 50 to 1000
CCS(=O)(=O)N1CCOC(COc2cc3ncnc(Nc4ccc(Cl)c(Cl)c4)c3cc2OC)C1 (configuration not stated) | 50 to 1000 | < 50 | < 50 | < 50
COc1cc2c(Nc3ccc(Br)c(Cl)c3)ncnc2cc1O[C@@H]1CO[C@H]2[C@@H]1OC[C@@H]2NS(C)(=O)=O | 1000 to 20000 | 50 to 1000 | 50 to 1000 | 1000 to 20000
COc1cc2c(Nc3ccc(Cl)c(Cl)c3)ncnc2cc1OCC1CN(S(C)(=O)=O)CCO1 (configuration not stated) | 50 to 1000 | < 50 | < 50 | < 50
COc1cc2c(Nc3ccc(Cl)c(Cl)c3)ncnc2cc1OCC1CN(S(=O)(=O)CCCCl)CCO1 (configuration not stated) | 50 to 1000 | < 50 | 50 to 1000 | 50 to 1000
COc1cc2c(Nc3ccc(Cl)c(Cl)c3C)ncnc2cc1OCC1CN(C)CCO1 (configuration not stated) | 50 to 1000 | < 50 | 1000 to 20000 | 50 to 1000
COc1cc2c(Nc3cc(Cl)c(Cl)c(Cl)c3)ncnc2cc1OCC1CN(C)CCO1 (configuration not stated) | 50 to 1000 | < 50 | 50 to 1000 | 50 to 1000
COc1cc2c(Nc3cc(Cl)c(Cl)cc3F)ncnc2cc1OCC1CN(C)CCO1 (configuration not stated) | 50 to 1000 | < 50 | 50 to 1000 | 50 to 1000
COCCOc1cc2c(Nc3ccc(Cl)c(Cl)c3)ncnc2cc1OCC1CN(C)CCO1 (configuration not stated) | 50 to 1000 | < 50 |  | 50 to 1000
COc1cc2c(Nc3ccc(Cl)c(Cl)c3)ncnc2cc1OCC1CN(C(=O)C(C)(C)C)CCO1 (configuration not stated) | 50 to 1000 | 50 to 1000 |  | 50 to 1000
COc1cc2c(Nc3ccc(Cl)c(Cl)c3)ncnc2cc1OCC1CN(C(=O)CCc2ccccc2)CCO1 (configuration not stated) | 50 to 1000 | 50 to 1000 |  | 50 to 1000
COc1cc2c(Nc3ccc(Br)cc3F)ncnc2cc1OCC1CCN(C(N)=NC#N)CC1 | < 50 | 50 to 1000 |  | 50 to 1000
COc1cc2c(Nc3ccc(Br)cc3Cl)ncnc2cc1OCC1CN(C)CCO1 (configuration not stated) | 50 to 1000 | 50 to 1000 |  | 50 to 1000
COc1cc2c(Nc3ccc(Cl)c(Cl)c3)ncnc2cc1OCC1CN(c2ccncc2)CCO1 (configuration not stated) | < 50 | < 50 |  | < 50
COc1cc2c(Nc3ccc(Cl)c(Cl)c3)ncnc2cc1OCc1noc(C2CCCN2C)n1 (configuration not stated) | 50 to 1000 | 50 to 1000 |  | 50 to 1000
COc1cc2c(Nc3ccc(Cl)c(Cl)c3)ncnc2cc1OCC1CN(CC2CCCCC2)CCCO1 (configuration not stated) | < 50 | 50 to 1000 |  | 50 to 1000
COc1cc2c(Nc3cccc(Cl)c3F)ncnc2cc1OCC1CN(C)CCO1 (configuration not stated) | 50 to 1000 | 50 to 1000 |  | 50 to 1000
COc1cc2c(Nc3ccc(Br)cc3Br)ncnc2cc1OCC1CN(C)CCO1 (configuration not stated) | 50 to 1000 | 50 to 1000 |  | 50 to 1000

SMILES | IC50 [1] [nM] | IC50 (Ephrin type-B receptor 4) [nM] | IC50 [2] [nM] | IC50 (Ephrin type-A receptor 2) [nM]
CCCCC(CC)C(=O)N1CCOC(COc2cc3ncnc(Nc4ccc(Cl)c(Cl)c4)c3cc2OC)C1 (configuration not stated) | 50 to 1000 | 50 to 1000 |  | 50 to 1000
COc1cc2c(Nc3ccc(Br)cc3C)ncnc2cc1OCC1CN(C)CCO1 (configuration not stated) | 50 to 1000 | 50 to 1000 |  | 50 to 1000
COc1cc2c(Nc3cccc(Br)c3Cl)ncnc2cc1OCC1CN(C)CCO1 (configuration not stated) | 50 to 1000 | < 50 |  | 50 to 1000
CCN1CCN(CC)C(COc2cc3ncnc(Nc4ccc(Cl)c(Cl)c4)c3cc2OC)C1 (configuration not stated) | 1000 to 20000 | 50 to 1000 |  | 50 to 1000
COc1cc2c(Nc3cccc(Cl)c3C)ncnc2cc1OCC1CN(C)CCO1 (configuration not stated) | 50 to 1000 | < 50 |  | < 50
COc1cc2c(Nc3ccc(Cl)c(Cl)c3)ncnc2cc1OCc1nc(CS(=O)(=O)c2ccccn2)no1 | 50 to 1000 | 50 to 1000 |  | 50 to 1000
COc1cc2c(Nc3ccc(Cl)c(Cl)c3)ncnc2cc1OCC1CN(CCCCF)CCO1 (configuration not stated) | < 50 | < 50 |  | 50 to 1000
CCCCS(=O)(=O)N1CCOC(COc2cc3ncnc(Nc4ccc(Cl)c(Cl)c4)c3cc2OC)C1 (configuration not stated) | 50 to 1000 | 50 to 1000 |  | 50 to 1000
COc1cc2c(Nc3ccc(Cl)c(Cl)c3)ncnc2cc1OCC1CN(S(=O)(=O)c2ccccc2)CCO1 (configuration not stated) | 50 to 1000 | 50 to 1000 |  | 1000 to 20000
COc1cc2c(Nc3ccc(Cl)c(Cl)c3)ncnc2cc1OCC1CNCC(C)(C)O1 (configuration not stated) | < 50 | 50 to 1000 | 50 to 1000 | 
COc1cc2c(Nc3ccc(Cl)c(Cl)c3)ncnc2cc1OCC1CN(CC=C(C)C)CCO1 (configuration not stated) | 50 to 1000 | 50 to 1000 |  | 50 to 1000
COc1cc2c(Nc3ccc(Cl)c(Cl)c3)ncnc2cc1OCC1CN(CCO)CCO1 (configuration not stated) | 50 to 1000 | 50 to 1000 |  | 50 to 1000
COc1cc2c(Nc3ccc(Cl)c(Cl)c3)ncnc2cc1OCC1CN(C(=O)CC(=O)O)CCO1 (configuration not stated) | < 50 | < 50 |  | < 50
CCC(CC)CN1CCCOC(COc2cc3ncnc(Nc4ccc(Cl)c(Cl)c4)c3cc2OC)C1 (configuration not stated) | 50 to 1000 | 50 to 1000 |  | 50 to 1000
COc1cc2c(Nc3ccc(F)c(Cl)c3)ncnc2cc1OCC1CN(C)CCO1 (configuration not stated) | 50 to 1000 | 50 to 1000 |  | 50 to 1000
COc1cccc(CC(=O)N2CCOC(COc3cc4ncnc(Nc5ccc(Cl)c(Cl)c5)c4cc3OC)C2)c1 (configuration not stated) | 50 to 1000 | 50 to 1000 |  | 50 to 1000
CCOc1cc2c(Nc3ccc(Cl)c(Cl)c3)ncnc2cc1OCC1CNCCO1 (configuration not stated) | < 50 | < 50 | < 50 | 
COc1cc2c(Nc3ccc(Cl)c(Cl)c3)ncnc2cc1OCC1CN(S(=O)(=O)c2ccc(F)cc2)CCO1 (configuration not stated) | 50 to 1000 | 50 to 1000 |  | 1000 to 20000
COc1cc2c(Nc3ccc(Cl)c(Cl)c3)ncnc2cc1OCC1CN(C)CC(C)(C)O1 (configuration not stated) | 50 to 1000 | 50 to 1000 | 50 to 1000 | 
